Measured values as given in patent US11932600B2, “Biaryl derivative” (DAIICHI SANKYO COMPANY, LIMITED, priority 2018, dated 2024).

biological target: T1, human TNAP (Homo sapiens, UniProt P05186); test: Inhibitory test of TNAP activity (pNPP substrate, p-nitrophenol production); type: biochemical; details: human TNAP from culture supernatant of transfected COS1 cells, 60 minutes at room temperature, ABS 405 nm
T1 construct: host or cells: COS1 cells, concentrated and dialyzed culture supernatant
T1 sequence (P05186 18-502 limits assumed): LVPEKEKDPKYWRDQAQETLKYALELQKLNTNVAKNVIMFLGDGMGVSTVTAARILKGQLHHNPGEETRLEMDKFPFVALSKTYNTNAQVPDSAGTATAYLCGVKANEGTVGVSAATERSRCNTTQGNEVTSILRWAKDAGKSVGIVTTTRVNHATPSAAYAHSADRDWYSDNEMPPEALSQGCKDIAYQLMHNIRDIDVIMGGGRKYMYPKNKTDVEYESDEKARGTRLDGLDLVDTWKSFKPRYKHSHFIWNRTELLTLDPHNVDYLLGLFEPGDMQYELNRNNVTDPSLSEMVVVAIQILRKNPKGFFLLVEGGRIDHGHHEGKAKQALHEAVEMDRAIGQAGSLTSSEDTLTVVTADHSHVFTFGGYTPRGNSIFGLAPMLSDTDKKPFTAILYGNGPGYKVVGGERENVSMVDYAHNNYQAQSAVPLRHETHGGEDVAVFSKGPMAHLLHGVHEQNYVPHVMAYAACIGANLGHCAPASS
Experimental: <Test Examples> (Test Example 1) Inhibitory Test of TNAP Activity
COS1 cells (DS Pharma Biomedical Co., Ltd.) were transfected with human TNAP (OriGene Technologies, Inc.) using Lipofectamine LTX & Plus reagent (Invitrogen Corp.). On the next day, the medium was replaced with a fresh medium, and the cells were cultured in an incubator for 3 days. After 3 days, the culture supernatant was collected and concentrated by centrifugation at 5000 G for 30 minutes using Amicon 14, 10^4 cut (Merck Millipore). The concentrated culture supernatant was dialyzed against 5 L of 50 mM Tris/200 mM NaCl/1 mM MgCl2/20 μM ZnCl2 twice and used as an enzyme source (enzyme solution). The substrate pNPP (ProteoChem Inc.) was adjusted to 3.1 mM with Milli-Q water, and a solution of each test compound dissolved in dimethyl sulfoxide (DMSO; Wako Pure Chemical Industries, Ltd.) by 6 serial dilutions at a 5-fold common ratio from 100 μM or DMSO was added thereto at a final concentration of 1% by volume. The enzyme solution adjusted to 2 μg/mL with an assay buffer (200 mM Tris/2 mM MgCl2/0.04 mM ZnCl2/0.01% Tween 20) was added in the same amount of the substrate solution and incubated at room temperature for 60 minutes. Then, the absorbance (ABS: 405 nm) was measured using a microplate reader (model plus 384, Molecular Devices, LLC), and the concentration of produced p-nitrophenol was calculated.

IC50	SMILES
0.14 nM	CCC(C(=O)O)c1ccc(-c2cc(Cl)cc(F)c2NS(=O)(=O)c2cncc(C)c2)cc1 (stereo not drawn) [Example 33, 2-{5′-Chloro-3′-fluoro-2′-[(5-methylpyridine-3-sulfonyl)amino][1,1′-biphenyl]-4-yl}butanoic acid]
3.5 nM	CC(Oc1ccc(-c2cc(Cl)cc(Cl)c2NS(=O)(=O)c2cccnc2)cc1)C(=O)O (stereo not drawn) [Example 13, 2-({3′,5′-Dichloro-2′-[(pyridine-3-sulfonyl)amino][1,1′-biphenyl]-4-yl}oxy)propanoic acid]
1.2 nM	COc1cncc(S(=O)(=O)Nc2c(Cl)cc(Cl)cc2-c2ccc(S(C)(=O)=O)c(F)c2)c1 [Example 21, N-[3,5-Dichloro-3′-fluoro-4′-(methanesulfonyl)[1,1′-biphenyl]-2-yl]-5-methoxypyridine-3-sulfonamide]
2.4 nM	Cc1ncncc1S(=O)(=O)Nc1c(F)cc(Cl)cc1-c1ccc(OC(C)(C)C(=O)O)cc1 [Example 23, 2-({5′-Chloro-3′-fluoro-2′-[(4-methylpyrimidine-5-sulfonyl)amino][1,1′-biphenyl]-4-yl}oxy)-2-methylpropanoic acid]
0.19 nM	CC(C)Oc1cncc(S(=O)(=O)Nc2c(F)cc(Cl)cc2-c2ccc(OC(C)(C)C(=O)O)cc2)c1 [Example 26, 2-{[5′-Chloro-3′-fluoro-2′-({5-[(propan-2-yl)oxy]pyridine-3-sulfonyl}amino)[1,1′-biphenyl]-4-yl]oxy}-2-methylpropanoic acid]
0.24 nM	Cc1cncc(S(=O)(=O)Nc2c(F)cc(Cl)cc2-c2ccc(OC(C)(C)C(=O)O)cc2)c1 [Example 3, 2-({5′-Chloro-3′-fluoro-2′-[(5-methylpyridine-3-sulfonyl)amino][1,1′-biphenyl]-4-yl}oxy)-2-methylpropanoic acid]
0.68 nM	Cc1cncc(S(=O)(=O)Nc2c(F)cc(Cl)cc2-c2ccc(OC(C)(C)C(=O)O)c(F)c2)c1 [Example 27, 2-({5′-Chloro-3,3′-difluoro-2′-[(5-methylpyridine-3-sulfonyl)amino][1,1′-biphenyl]-4-yl}oxy)-2-methylpropanoic acid]
0.1 nM	Cc1cncc(S(=O)(=O)Nc2c(F)cc(Cl)cc2-c2ccc(CC(=O)O)cc2)c1C [Example 12, {5′-Chloro-2′-[(4,5-dimethylpyridine-3-sulfonyl)amino]-3′-fluoro[1,1′-biphenyl]-4-yl}acetic acid]
0.28 nM	COc1cncc(S(=O)(=O)Nc2c(Cl)cc(Cl)cc2-c2ccc(CC(=O)O)cc2)c1 [Example 22, {3′,5′-Dichloro-2′-[(5-methoxypyridine-3-sulfonyl)amino][1,1′-biphenyl]-4-yl}acetic acid]
0.9 nM	Cc1cncc(S(=O)(=O)Nc2c(Cl)cc(Cl)cc2-c2ccc(OCC(=O)O)cc2)c1 [Example 15, ({3′,5′-Dichloro-2′-[(5-methylpyridine-3-sulfonyl)amino][1,1′-biphenyl]-4-yl}oxy)acetic acid]
0.24 nM	CC(C)Oc1cncc(S(=O)(=O)Nc2c(F)cc(Cl)cc2-c2ccc(CCC(=O)O)cc2)c1 [Example 30, 3-[5′-Chloro-3′-fluoro-2′-({5-[(propan-2-yl)oxy]pyridine-3-sulfonyl}amino)[1,1′-biphenyl]-4-yl]propanoic acid]
0.49 nM	COc1cncc(S(=O)(=O)Nc2c(Cl)cc(Cl)cc2-c2ccc(OC(C)C(=O)O)cc2)c1 (stereo not drawn) [Example 19, 2-({3′,5′-Dichloro-2′-[(5-methoxypyridine-3-sulfonyl)amino][1,1′-biphenyl]-4-yl}oxy)propanoic acid]
2.6 nM	CC(C)(Oc1ccc(-c2cc(Cl)cc(F)c2NS(=O)(=O)c2cncc(S(C)(=O)=O)c2)cc1)C(=O)O [Example 28, 2-[(5′-Chloro-3′-fluoro-2′-{[5-(methanesulfonyl)pyridine-3-sulfonyl]amino}[1,1′-biphenyl]-4-yl)oxy]-2-methylpropanoic acid]
0.5 nM	Cc1cncc(S(=O)(=O)Nc2c(Cl)cc(Cl)cc2-c2ccc(OC(C)(C)C(=O)O)cc2)c1 [Example 2, 2-({3′,5′-Dichloro-2′-[(5-methylpyridine-3-sulfonyl)amino][1,1′-biphenyl]-4-yl}oxy)-2-methylpropanoic acid]
0.2 nM	CCc1ccncc1S(=O)(=O)Nc1c(F)cc(Cl)cc1-c1ccc(OC(C)(C)C(=O)O)cc1 [Example 24, 2-({5′-Chloro-2′-[(4-ethylpyridine-3-sulfonyl)amino]-3′-fluoro[1,1′-biphenyl]-4-yl}oxy)-2-methylpropanoic acid]
0.23 nM	COc1cncc(S(=O)(=O)Nc2c(F)cc(Cl)cc2-c2ccc(OC(C)(C)C(=O)O)cc2)c1 [Example 18, 2-({5′-Chloro-3′-fluoro-2′-[(5-methoxypyridine-3-sulfonyl)amino][1,1′-biphenyl]-4-yl}oxy)-2-methylpropanoic acid]
2.4 nM	O=C(O)COc1ccc(-c2cc(Cl)cc(F)c2NS(=O)(=O)c2cccnc2)cc1 [Example 16, ({5′-Chloro-3′-fluoro-2′-[(pyridine-3-sulfonyl)amino][1,1′-biphenyl]-4-yl}oxy)acetic acid]
0.17 nM	Cc1cncc(S(=O)(=O)Nc2c(F)cc(Cl)cc2-c2ccc(C(C)C(=O)O)cc2)c1 (racemic) [Example 32, 2-{5′-Chloro-3′-fluoro-2′-[(5-methylpyridine-3-sulfonyl)amino][1,1′-biphenyl]-4-yl}propanoic acid]
2.6 nM	CC(C)(Oc1ccc(-c2cc(Cl)cc(Cl)c2NS(=O)(=O)c2cccnc2)cc1)C(=O)O [Example 14, 2-({3′,5′-Dichloro-2′-[(pyridine-3-sulfonyl)amino][1,1′-biphenyl]-4-yl}oxy)-2-methylpropanoic acid]
0.41 nM	COc1ccncc1S(=O)(=O)Nc1c(F)cc(Cl)cc1-c1ccc(OC(C)(C)C(=O)O)cc1 [Example 25, 2-({5′-Chloro-3′-fluoro-2′-[(4-methoxypyridine-3-sulfonyl)amino][1,1′-biphenyl]-4-yl}oxy)-2-methylpropanoic acid]
0.3 nM	Cc1cncc(S(=O)(=O)Nc2c(F)cc(Cl)cc2-c2ccc(OCC(=O)O)cc2)c1 [Example 17, ({5′-Chloro-3′-fluoro-2′-[(5-methylpyridine-3-sulfonyl)amino][1,1′-biphenyl]-4-yl}oxy)acetic acid]
5.5 nM	O=C(O)COc1ccc(-c2cc(Cl)cc(Cl)c2NS(=O)(=O)c2cccnc2)cc1 [Example 1, ({3′,5′-Dichloro-2′-[(pyridine-3-sulfonyl)amino][1,1′-biphenyl]-4-yl}oxy)acetic acid]
0.36 nM	COc1cncc(S(=O)(=O)Nc2c(Cl)cc(Cl)cc2-c2ccc(C(F)(F)C(=O)O)cc2)c1 [Example 20, {3′,5′-Dichloro-2′-[(5-methoxypyridine-3-sulfonyl)amino][1,1′-biphenyl]-4-yl}(difluoro)acetic acid]

system: plasma ALP (80-90% containing TNAP); test: Inhibitory test of plasma TNAP activity in B6 mouse; type: in vivo; details: 0.3 mg/kg orally in 0.5% methylcellulose, average inhibition from 0 hour to 6 hours after administration, activity before administration = 100%
Experimental: (Test Example 3) Inhibitory Test of Plasma TNAP Activity in B6 Mouse (Charles River Laboratories Japan, Inc.)
After blood sampling from the tail vein using a heparin-treated hematocrit capillary tube (EM Meister Hematocrit Capillary Tube, AS ONE Corp.) (as the sample before compound administration), each test compound suspended in a 0.5% methylcellulose solution (powder purchased from Wako Pure Chemical Industries, Ltd. was adjusted to 0.5% with Otsuka distilled water) was administered orally to the mouse (0.3 mg/kg). 1, 2, 4, 6, and 24 hours after the administration, blood was collected from the tail vein using a heparin-treated hematocrit capillary tube to obtain a plasma sample. The plasma sample was added to an assay buffer (1 M Tris, 1 M MgCl2, 20 mM ZnCl2, and water, pH 7.5), and the mixture was left standing for 5 minutes. Then, the absorbance at 405 nm was measured and used as a blank. The substrate pNPP was added to the plasma sample and incubated at room temperature for 180 minutes. Then, the absorbance (ABS: 405 nm) was measured using a microplate reader (model plus 384, Molecular Devices, LLC), and the concentration of produced p-nitrophenol was calculated. The blank was subtracted from all measurement values to calculate TNAP activity at each time point with the TNAP activity of the sample before compound administration defined as 100%.
It was calculated according to the following expression: 100−((plasma ALP activity at 0 hr+plasma ALP activity at 1 hr)*1/2+(plasma ALP activity at 1 hr+plasma ALP activity at 2 hr)*1/2+(plasma ALP activity at 2 hr+plasma ALP activity at 4 hr)*2/2+(plasma ALP activity at 4 hr+plasma ALP activity at 6 hr)*2/2)/6.

SMILES	Plasma ALP Inhibition (6 h ave. inhibition %)
Cc1cncc(S(=O)(=O)Nc2c(F)cc(Cl)cc2-c2ccc(OC(C)(C)C(=O)O)cc2)c1 [Example 3, 2-({5′-Chloro-3′-fluoro-2′-[(5-methylpyridine-3-sulfonyl)amino][1,1′-biphenyl]-4-yl}oxy)-2-methylpropanoic acid]	70.5%
Cc1cncc(S(=O)(=O)Nc2c(F)cc(Cl)cc2-c2ccc(CC(=O)O)cc2)c1C [Example 12, {5′-Chloro-2′-[(4,5-dimethylpyridine-3-sulfonyl)amino]-3′-fluoro[1,1′-biphenyl]-4-yl}acetic acid]	82.2%
CC(C)Oc1cncc(S(=O)(=O)Nc2c(F)cc(Cl)cc2-c2ccc(CCC(=O)O)cc2)c1 [Example 30, 3-[5′-Chloro-3′-fluoro-2′-({5-[(propan-2-yl)oxy]pyridine-3-sulfonyl}amino)[1,1′-biphenyl]-4-yl]propanoic acid]	69.9%
Cc1cncc(S(=O)(=O)Nc2c(F)cc(Cl)cc2-c2ccc(CCC(=O)O)cc2)c1 [Example 4, 3-{5′-Chloro-3′-fluoro-2′-[(5-methylpyridine-3-sulfonyl)amino][1,1′-biphenyl]-4-yl}propanoic acid]	80.2%
